Measured values from US8247529B2, “Neoplasia targeting peptides and methods of using the same” (The Board of Trustees of the Leland Stanford Junior …, priority 2008, dated 2012).
Entries after “also recorded” stand apart in the source; their conditions may differ.

Experiments:
Seg-1 cells = experiment: Peptide binding on cell lines; conditions: 100 μmol FITC-conjugated peptide, 15 min room temperature
Experimental: (§1) FITC-conjugated peptide (100 μmol) was incubated with Segl (Panel a), OE21 (Panel c), QhTERT (Panel d) cells. Peptide binding were found in plasma membrane of >90% of Seg1 cells (Panel a).
(§2) 3×10^4-5×10^4 Seg-1, OE21, QhTERT cells were grown in chamber slides.
(§3) Blocking of non-specific binding to these cells was performed by adding 200 μL of 1% BSA diluted in PBS for 30 min. The cells were then incubated with 100 μmol of the targeted FITC conjugated peptide in serum free media for 15 min in room temperature. The scrambled peptide had been used as control. Wash cells 3-time use 200 μL PBS/0.5% TWEEN 20 in room temperature. Cell were fixed by ice cold Acetone 90 second. Then mounted by Vectashield mounting medium with DAPI. Fluorescence images were collected with a confocal microscope (Nikon 1000) at 200×. The fluorescence intensity from the cells in 3 images were averaged to assess peptide binding.

GIL hTERT(HGD) cells = experiment: Peptide binding on cell lines; conditions: FITC-conjugated peptide
Experimental: as §3

TE7 cells = experiment: Peptide binding on cell lines; conditions: FITC-conjugated peptide
Experimental: as §3

[1] = tested on: esophageal adenocarcinoma within Barrett's esophagus; experiment: In vivo molecular imaging, small animal model (EGJ rat, fluorescence endoscopy); conditions: topical 1 mL 100 μM, 5 min incubation, rinsed
From the text: In vivo molecular imaging has been performed in small animal models of esophageal neoplasia to localize binding by targeted peptides. A rigid endoscope for imaging the rat esophagus consists of a 9.5 Fr (3 mm) diameter rigid Hopkins II 0 deg telescope with a 11.5 cm working length (Karl Storz Veterinary Endoscopy, Goleta, Calif.). A 3 Fr (1 mm) diameter instrument channel is available to perform tissue biopsy. Fluorescence excitation light is produced with a 450 to 475 nm passband filter that can be manually placed into the optical path of a xenon (175 W) light source, and is delivered to the endoscope via a light guide. Fluorescence images were collected with 510 nm barrier filter to block the excitation light, and detected with a color CCD camera. The molecular imaging studies were performed in the surgically-altered (EGJ) rats after 36 weeks. The rats were fasted overnight, anesthetized using inhaled isoflurane, and placed in the supine position. The extremities and incisors were restrained to prevent injury to the animal. The endoscope was inserted into the distal esophagus using ˜1 to 2 ml of air injected through an instrument port to dilate the esophageal lumen. The FITC-labeled target peptide was topically administered through the instrument channel onto the distal esophagus in a 1 mL solution diluted in PBS at a concentration of 100 μM. After incubation for 5 minutes, excess peptide was rinsed off with tap water, and binding was evaluated by fluorescence. […] A complete examination usually lasts <2 minutes.

[2] = tested on: high-grade dysplasia in Barrett's esophagus; experiment: Clinical imaging (fluorescence endoscopy of distal esophagus); format: in vivo; conditions: human, topical ~3 ml 10 μM
From the text: Endoscopic images collected in vivo of distal esophagus in human subject with Barrett's esophagus and high grade dysplasia on white-light endoscopy (Panel a) and fluorescence imaging (Panel b).
A prototype endoscope was used to collect fluorescence images of peptide binding from human subjects with Barrett's esophagus and high-grade dysplasia using the target peptide labeled with FITC. With IRB approval and informed consent, human subjects with a history of Barrett's esophagus and biopsy proven high-grade dysplasia scheduled for endoscopic mucosal resection were recruited into the study. After esophageal intubation, a 10 second video was collected in the white light mode. Then, ˜3 ml of peptide at a concentration of 10 μM was administered topically to the distal esophagus using a mist spray catheter. After 5 minutes for incubation, excess peptide was gently rinsed off with water, and another 10 second video was collected of the peptide targeted fluorescence image. The mucosa of the distal esophagus was then removed by endoscopic mucosal resection. Each video stream was exported into individual frames.
(§4) No distinct architectural lesions can be appreciated. […] Targeted biopsies were collected from sites suspicious for HGD, non-dysplastic Barrett's esophagus. The specimens were embedded in OCT media, cooled to […], and cut into 10 μm horizontal sections on a cryostat.

[3] = tested on: Barrett's mucosa with high-grade dysplasia; experiment: Confocal fluorescence of frozen sections of targeted biopsies after clinical imaging; format: binding; conditions: biopsies after topical administration in human subjects, 400×
Experimental: (§5) Routine histology (H&E) of corresponding images is shown in Panel c and Panel d, magnification 400×.
as §4
(§6) The specimens were then evaluated for fluorescence on a tabletop confocal microscope, and an adjacent section was formalin fixed and stained with H&E for evaluation by two pathologists. […] Routine histology (H&E) of the corresponding images (Panels c and d) from adjacent frozen sections are also shown for purposes of comparison, magnification 400×.

[4] = tested on: Barrett's mucosa with no dysplasia; experiment: as above; format: binding; conditions: biopsies after topical administration in human subjects, 400×
Experimental: as §5, §4, §6

[5] = tested on: Seg-1 cells (esophageal adenocarcinoma); experiment: Phage binding assay (cell binding of phage clones relative to insertless phage); conditions: Seg-1 vs QhTERT, p<0.01
Experimental: Individual phage clones (2×10^11 pfu) were incubated at room temperature for 30 min with Segl and Q-hTERT cells. The columns represent the mean of measurements from three wells and the bars represent the standard deviation (SD). P-values for each group were calculated using student's t test.
According to the sequencing results some peptide sequence expressed on more than one phage clones. These phage clones had been amplified respectively for the binding assay. Seg-1 cell and Q-hTERT cell (None dysplasia Barrett's cell line) were growth in 6 well plate. 2×10^11 pfu each single clone phage were incubated with both cell in triple wells. Wild-type (no insert) phage (M13KE, New England Biolabs, Beverly, Mass.) was used as control. The incubation, two-step elution and tittering were done as mentioned above. […] Fold binding of each phage relative to none insert phage was measured. Different binding of each phage clone on Seg-1 and QhTERT were calculated using student's t test.

[6] = tested on: OE21 cells (squamous esophagus carcinoma); experiment: Peptide binding on cell lines; conditions: 100 μmol FITC-conjugated peptide, 15 min room temperature
Experimental: as §1, §2, §3

[7] = tested on: QhTERT (normal Barrett's) cells; experiment: Peptide binding on cell lines; conditions: 100 μmol FITC-conjugated peptide, 15 min room temperature
Experimental: as §1, §2, §3

Seg1 cells = experiment: Competitive inhibition assay; format: binding; conditions: unconjugated peptide 100, 500, 1000 μmol (5 or 10 times higher concentration) 15 min prior to FITC-conjugated peptide, P<0.01
Experimental: Unconjugated peptide was incubated with Seg1 cells 15 min prior to adding of FITC-conjugated peptide in three different concentrations. […] Error bars represent mean±s.e.m. for 3 images. *P<0.01.
Competitive inhibition of targeted peptide binding was evaluated by incubating the cells in culture with unconjugated (no FITC) peptide at concentrations of 100, 500, and 1000 μmol. Three fluorescence images were collected at 200× from each well of the chamber slide using the same gain and exposure time. Images selected for analysis met the following criteria: 1) 70-90% cell confluence, 2) away from the edge of each well, 3) low background binding on cell free area of slide, 4) No change in cellular morphology. The mean cell numbers under three 200× view were record to calculate the percentage of peptide binding cells. Quantification of the fluorescence intensities was done by NIH Image J software to calculate pixel value between each group under the same threshold. Differences in the mean fluorescence intensities were compared using a student's t test.

[8] = tested on: Barrett's with high-grade dysplasia (HGD) tissue; experiment: Targeted peptide binding on esophageal mucosa (human tissue specimens)
Experimental: (§7) Specimens were incubated with 100 μmol FITC-conjugated peptide in PBS (Panels a, b, c, d). Hematoxylin and eosin staining (Panels e, f, g, h) was performed on adjacent sections to show the pathology diagnosis. In HGD tissue the binding site is a group of consecutive cells located in the lining of esophageal. In normal Barrett's mucosa the binding site is sporadic separated cells in some area of mucosa.
(§8) IRB approval was granted by the Stanford University Medical Center, the VA Palo Alto Health Care Systems, and El Camino Hospital. Human subjects with a history of Barrett's esophagus undergoing routine screening endoscopy were recruited for this study and informed consent was obtained. Subjects with coagulation abnormalities, or low tolerance for endoscopy were excluded from the study. Tissue specimens were collected using standard pinch biopsy from regions of endoscopically apparent Barrett's and squamous esophagus and duodenum mucosa. Histopathology was evaluated by two gastrointestinal pathologists in a blinded fashion according to common criteria (Goldblum, Mod Pathol 2003;16:316-24).
(§9) The tissue specimens were placed immediately after excision in an Eppendorf tube containin PBS at 4° C. PBS and incubated with100 μmol of targeted peptide ‘ASYNYDA’ for 15 minutes at room temperature. After being washed three times with PBS at 4° C., the specimens were embedded in OCT freezing compound (Sakura finetek USA), cut in 6 μm sections, and placed onto Poly-D-lysine coated slides. The tissue specimens were fixed in acetone at 4° C. for 90 seconds, counterstained with DAPI, and mounted in Vectashield. An adjacent serial section of the specimen was cut and stained with H&E for routine histology and comparison.
(§10) For each specimen 10 serial section were screened under microscope. Three highest intensity fluorescence images were collected at 400× using the same gain and exposure time. Fluorescence intensities of images were quantified by NIH Image J software to calculate pixel value between each sample under the same threshold (40, 255). Differences in the mean fluorescence intensities between four tissue types were compared using a student's t test.

[9] = tested on: adjacent normal esophageal mucosa; experiment: as above; conditions: 100 μmol FITC-conjugated peptide in PBS, 15 min, fresh biopsy
Experimental: as §7, §8, §9, §10

duodenal mucosa = experiment: as above; conditions: 100 μmol FITC-conjugated peptide in PBS, 15 min, fresh biopsy
Experimental: as §7, §8, §9, §10

[10] = tested on: normal (non-dysplastic) Barrett's tissue; experiment: as above; conditions: 100 μmol FITC-conjugated peptide in PBS, 15 min, fresh biopsy
Experimental: as §7, §8, §9, §10

## YANSAYD [scrambled peptide-FITC]
Seg-1 cells
  peptide binding to Seg-1 cells: did not bind on any cells
Seg-1 cells; listed as Scrambled FITC-conjugated peptide
  peptide binding to Seg-1 cells: no binding

## ASYNYDA-GGGSK-FITC [Peptide 17-FITC]
Seg-1 cells
  percentage of Seg-1 cells with peptide binding on plasma membrane: > 90%
GIL hTERT(HGD) cells
  percentage of GIL hTERT(HGD) cells with peptide binding on cytoplasm: 1%
TE7 cells
  percentage of TE7 cells with peptide binding on cytoplasm: 37%
[1]
  average target-to-background ratio: 5±2
[1]; listed as FITC-labeled target peptide
  fluorescence at site of lesion after topical peptide: Increased fluorescence intensity was observed at the site of the lesion
[1]; listed as target peptide
  fluorescence at site of lesion after topical peptide: increased fluorescence intensity at the site of the lesion
[2]; 5 min incubation, rinsed, listed as FITC-labeled target peptide
  fluorescence at site of lesion after topical peptide: increased fluorescence intensity at a site; also recorded: increased fluorescence intensity at the site of the lesion
[2]; mean fluorescence of 5 independent regions
  target-to-background ratio (HGD vs non-dysplastic Barrett's metaplasia): 1.52
[3]; listed as FITC-labeled peptide
  binding to Barrett's mucosa with high-grade dysplasia (frozen section): significant binding
[3]; listed as target peptide
  binding to Barrett's mucosa with high-grade dysplasia (frozen section): Significant binding
[4]
  binding to Barrett's mucosa with no dysplasia (frozen section): minimal binding

## ASYNYDA
[5]
  fluorescence intensity with Seg-1 than with QhTERT cells: 5 times
[6]
  peptide binding to OE21 cells: didn't binding
[7]
  peptide binding to QhTERT cells: didn't binding
Seg1 cells
  inhibition of FITC-conjugated peptide binding to Seg1 cells by unconjugated peptide: can be inhibited
Seg1 cells; listed as unconjugated peptide 17
  inhibition of FITC-conjugated peptide binding to Seg1 cells by unconjugated peptide: could be inhibited
[8]; 100 μmol FITC-conjugated peptide in PBS, 15 min, fresh biopsy
  peptide binding to Barrett's with high-grade dysplasia tissue: bound
[8]; HGD vs Barrett's, duodenal and normal esophageal mucosa, P<0.01
  quantization of peptide binding (fluorescence intensity, NIH Image J), HGD vs other tissues: higher preferential bind on HGD than other tissues
[9]
  peptide binding to adjacent normal esophageal mucosa: did not bind
Duodenal mucosa
  peptide binding to duodenal mucosa: did not bind
[10]
  peptide binding to normal Barrett's tissue: bound
